From US8568973B2, “Cell-signaling assays” (Molecular Devices, LLC, priority 1999, dated 2013)
Entries after “also recorded” stand apart in the source; their conditions may differ.

System: T47D cells
Assay: Whole-cell cAMP luminescence polarization assay of modulators (FIG. 13)
Format: cell-based
Experimental: • (a) Preparation of 1:75 cAMP antibody working stock. Dilute the 300× cAMP antibody stock 1:75 in cAMP assay buffer (0.05 M HEPES, pH 7.5, 150 mM NaCl, 0.1% bovine gamma globulin) (e.g., by adding 14 μL of the 300× cAMP antibody stock to 1036 μL of cAMP assay buffer). 10 μL of this working stock solution will be added to the assay plate, as indicated in the plate layout in FIG. 9. • (b) Preparation of cAMP tracer working stock. Dilute the 500× cAMP tracer stock 1:125 in cAMP assay buffer (e.g., by adding 10 μL of the 500× cAMP tracer stock to 1240 μL of cAMP assay buffer). 10 μL of this working stock solution will be added to the assay plate, as indicated in the plate layout in FIG. 9. • (c) Preparation of cAMP calibration curve. Dilute the cAMP calibrator 1:25 in cAMP assay buffer (e.g., by adding 10 μL cAMP calibrator to 240 μL cAMP assay buffer) to give 10 μM cAMP calibrator or 400 pmol in final assay. Prepare seven 1:3 serial dilutions to give 3.33, 1.11, 0.37, 0.12, 0.041, 0.014, and 0.005 μM cAMP (133 to 0.125 pmol in final assay). • (d) Preparation of samples. […] A plastic plate cover may be used to prevent possible evaporation, but care should be taken with plastic plate sealers, which may introduce undesirable background fluorescence. • (e) Read plate using a light detection device capable of generating and detecting polarized light. […]

Structure (SMILES) | cAMP production (cAMP levels) (cultured adherent T47D cells, whole cell preparation, forskolin protocol 20 μM final, 15 minutes at 37° C.) | effect on isoproterenol-stimulated cAMP production (cultured T47D cells, endogenous beta receptors, antagonist added to isoproterenol stimulation)
CC(C)NCC(O)c1ccc(O)c(O)c1 (centres unmarked) [isoproterenol] | stimulates cAMP production; also recorded: stimulated | –
CC(C)NCC(O)COc1cccc2ccccc12 (centres unmarked) [propranolol] | – | reversed; also recorded: inhibited
